Source: patent US12472226B2, “Cell-permeable peptide” (priority 2019, dated 2025)
Non-standard residues stand in square brackets, D forms with d. No end group written: not given here. *: point of attachment. FITC = O=C1OC2(c3ccc(O)cc3Oc3cc(O)ccc32)c2ccc(NC(=S)*)cc21; Ahx = NCCCCCC(=O)O

Tests used:
[1] = test system: HT-1080 cells tumor; test: Growth-inhibition and apoptosis of cancer cells in tumor-bearing mice; format: in vivo, BALB/c nude mouse; conditions: 10 mg/kg intraperitoneally every 3 days
Procedure: HT-1080 cells (1×10^7 cells/200 μL) were subcutaneously implanted into the back of 5 week-old BALB/c nude mouse (CHARLES RIVER LABORATORIES JAPAN, INC.). A tumor after the implantation was confirmed to reach 30 to 60 mm^3, and then they were subjected to the following tests.
Example 2 was dissolved in the sterile water and adjusted to be 200 μg/200 μL by the addition of 2-time concentrated α-MEM (not containing glutamine or an antibiotic). It was intraperitoneally administered to tumor-bearing mice at 10 mg/kg every 3 days. In the control administration group, 200 μL of 1-time concentrated α-MEM was intraperitoneally administered to tumor-bearing mice every 3 days. The mice were weighed on DRETEC weighing scale (DRETEC CO., Ltd., Japan) and the tumor size (estimation volume (shortest diameter×longer diameter×height×pi/6 mm^3)) was measured with a vernier caliper (maximum: 150 mm, minimum: 0.05 mm) (MITUTOYO, Japan) every 3 days.
FIG. 6 is a graph illustrating the transitions of tumor size in the Example 2 and control administration group (N=6). The vertical axis represents the average value of tumor size±standard deviation (SD), and the horizontal axis represents the days after administration. […] In the control administration group, the tumor size on day 24 was more than 1,500 mm^3. On the other hand, the effect of suppressing tumor growth was confirmed as the tumor size was about 600 mm^3 in the Example 2 administration.

[2] = test system: cytoplasm and nuclear protein of HT-1080 cells; test: Analytical test of cytoplasm and nuclear protein bound by Example 2 (immunoprecipitation, shotgun analysis); format: binding, human; conditions: 50 μg/mL, 5 days
Procedure: The HT-1080 cells (20 million cells) were cultured in 4 mL of serum-supplemented medium (α-MEM+10% FBS) to be 50 μg/mL at the final concentration of Example 2 for 5 days at 37° C. and 5% CO2 in the cell incubator. The cells were washed with PBS and collected. The protein was individually harvested from the cytoplasm and the nucleus using NE-PER Nuclear and Cytoplasmic Extraction Reagents (PIERCE). 80 μL of A/G agarose was added to 1 mg of each protein from the cytoplasm and the nucleus and stirred at 4° C. for 1 hour, the samples were pretreated. 10 μg of IgG Fraction Monoclonal Mouse Anti-Fluorescein (FITC) (Jackson ImmunoResearch) was added to the pretreated solution (1 mg/600 μL) and shaken at 4° C. overnight. Subsequently, 20 μL of A/G agarose was added to the mixtures and shaken at 4° C. for 2 hours. After the mixtures were washed three times with a wash buffer, 50 μL of elution buffer (Thermo Fisher Scientific) was added to the A/G agarose. […]
Proteins were identified from the cytoplasm or nucleus and listed with the accession number, protein name, identified number of detected peptides, identified number of unique peptides, confidence score and amount of cytoplasmic protein or nuclear protein(fmol), except for the antibodies used in immunoprecipitation and Example 2 from the detected proteins.

[3] = test system: HT-1080 cells; test: Test on nuclear transport (confocal, DAPI); format: cell-based, human; conditions: 50 μg/mL; for intracellular localization: HT-1080 cells
From the text: Human fibrosarcoma-derived HT-1080 cells (HT-1080 cells, JCRB cell bank) were used as cancer cells in the test for monitoring changes in mitochondrial membrane potential. HT-1080 cells, human osteosarcoma cell line Hos cells (Hos cells, JCRB cell bank), human histiocytic lymphoma/macrophage U937 cells (U937 cells, JCRB cell bank), human myeloid leukemia HL-60 cells (HL-60 cells, JCRB cell bank), acute monocytic leukemia THP-1 cells (THP-1 cells, JCRB cell bank), human alveolar basal epithelial adenocarcinoma cell A549 cells (A549 cells, Cell Resource Center for Biomedical Research, Institute of Development, Aging and Cancer, Tohoku University), human pancreatic carcinoma cells (MIA Paca 2 cells, Cell Resource Center for Biomedical Research, Institute of Development, Aging and Cancer, Tohoku University) and well differentiated human liver carcinoma-derived cell line HuH7 cells (HuH7 cells, Cell Resource Center for Biomedical Research, Institute of Development, Aging and Cancer, Tohoku University) were used as cancer cells in an in vitro cell-death induction test of cancer cells and a nuclear transport test of Example 2. Normal human gingival fibroblast cells Gin-1 (Gin-1 cells, DS Pharma Biomedical) were used as a control. The above-described cells were each inoculated into a 96-well culture plate (Falcon) at 5,000 cells/[…] and subjected to the following tests.
The cells were cultured in 200 μL of serum-supplemented medium (α-MEM+10% FBS) to be 50 μg/mL at the final concentration of Example 2 for 3 or 9 days. The cell-death was not detected in the culture on day 3. On the contrary, since the cell-death was detected in the culture on day 9, the day 9 culture as described above was used for the tests. The above each cell was separated and transferred to a Cellview glass bottom dish (35×10 mm) (Greiner). The cells on day 3 were fixed with 10% formalin-ethanol and then dyed with DAPI. The cells on day 9 were dyed with DAPI without fixation.
FIG. 4 is the photographs of Example 2 (green), DAPI (blue), overlay images of Example 2 (green) and DAPI (blue) and differential interference image on the HT-1080 cells on day 3 or 9.

“Example 2: peptide of SEQ ID NO: 1 labeled with FITC, bound via an Ahx linker at the N-terminus ({FITC}-[Ahx]KDNRGNLLQCVCTGNGRGEWKC; cysteine pairing not given here)” was tested, and the “growth inhibition of the tumor compared with the control administration group” value ([1]; between days 12 and 24) was “significant difference at a level of 1%”, the tumor size ([1]; day 24, N=6) was “about 600 mm^3” and the tumor shrinkage ([1]; to the 33th day) was “tendency to shrink the tumor was confirmed”. The “nuclear transfer proved biochemically” value [2] was “transfer to the inside of the nucleus”, the “proteins bound (identified from cytoplasm or nucleus)” value [2] was “linker histones H1-3, core histones (H2A, H2B, H3-2 and H4), 22 types of 40S ribosomal proteins and 28 types of 60S ribosomal proteins” and the “cell-death in the culture” value ([3]; day 3) was “not detected”. For the same substance, the “cell-death in the culture” value ([3]; day 9) was “detected”, the intracellular localization ([3]; day 3) was “present at a cytoplasm” and the intracellular localization ([3]; day 9) was “transferred to a nucleus and bound to a chromosome DNA”.
